The target of test [1] is T1, recombinant human ASK1 protein (Homo sapiens, UniProt Q99683).
T1 sequence (Q99683 1-1374): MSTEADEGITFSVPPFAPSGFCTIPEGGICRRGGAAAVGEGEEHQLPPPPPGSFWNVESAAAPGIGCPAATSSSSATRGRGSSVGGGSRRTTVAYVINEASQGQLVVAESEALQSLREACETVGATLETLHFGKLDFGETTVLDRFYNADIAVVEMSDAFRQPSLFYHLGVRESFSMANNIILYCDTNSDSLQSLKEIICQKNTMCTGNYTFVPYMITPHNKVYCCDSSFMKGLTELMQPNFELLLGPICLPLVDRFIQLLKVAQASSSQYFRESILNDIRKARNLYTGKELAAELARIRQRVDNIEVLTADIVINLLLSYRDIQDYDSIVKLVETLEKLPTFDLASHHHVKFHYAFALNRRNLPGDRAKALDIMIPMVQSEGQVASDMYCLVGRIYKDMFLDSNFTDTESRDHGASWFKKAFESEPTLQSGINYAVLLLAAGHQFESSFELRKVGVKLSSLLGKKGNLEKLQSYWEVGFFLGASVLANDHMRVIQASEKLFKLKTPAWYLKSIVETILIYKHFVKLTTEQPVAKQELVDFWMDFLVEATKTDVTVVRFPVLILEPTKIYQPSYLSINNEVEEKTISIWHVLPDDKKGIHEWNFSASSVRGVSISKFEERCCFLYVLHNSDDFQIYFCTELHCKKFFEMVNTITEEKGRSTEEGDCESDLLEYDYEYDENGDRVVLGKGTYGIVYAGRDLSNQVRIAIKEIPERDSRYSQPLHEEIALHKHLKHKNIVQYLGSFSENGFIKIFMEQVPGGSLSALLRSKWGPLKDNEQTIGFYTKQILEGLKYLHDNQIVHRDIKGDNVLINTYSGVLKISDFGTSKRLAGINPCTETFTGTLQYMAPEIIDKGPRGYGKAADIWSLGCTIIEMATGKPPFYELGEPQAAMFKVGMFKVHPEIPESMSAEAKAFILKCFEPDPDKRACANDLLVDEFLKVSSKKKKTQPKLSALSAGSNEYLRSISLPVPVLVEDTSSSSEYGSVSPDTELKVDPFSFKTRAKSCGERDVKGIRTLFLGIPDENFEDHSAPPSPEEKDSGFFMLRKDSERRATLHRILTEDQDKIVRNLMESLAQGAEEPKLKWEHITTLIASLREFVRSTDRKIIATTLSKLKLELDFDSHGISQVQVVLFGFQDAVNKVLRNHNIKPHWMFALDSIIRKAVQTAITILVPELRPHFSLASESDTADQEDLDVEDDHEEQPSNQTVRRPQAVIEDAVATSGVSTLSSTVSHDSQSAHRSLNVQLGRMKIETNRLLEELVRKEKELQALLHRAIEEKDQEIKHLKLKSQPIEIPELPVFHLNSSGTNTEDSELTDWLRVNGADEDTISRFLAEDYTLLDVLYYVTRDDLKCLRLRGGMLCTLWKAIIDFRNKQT
As to the kind of experiment: Evaluation of ASK1 inhibition activity ([gamma-33P]-ATP, scintillation counting). The class given is biochemical. Particulars: for remaining activity at 0.5 µM: activity of group without compound set at 100%, read-out: Remaining kinase activity (%) at 0.5 uM. The method, then: The recombinant human ASK1 protein was initiated by adding a mixture of Mg/ATP to the reaction solution (8 mM MOPS PH 7.0, 0.2 mM EDTA, 0.33 mg/mL myelin basic protein, 10 mM Mg Acetate and [gamma-33P]-ATP), and the reaction was terminated by adding 0.5% phosphoric acid after 40 min at room temperature.

For test [2], the system named is MPTP-induced PD mouse model. As to the kind of experiment: MPTP-induced PD mouse model: TH staining of striatum and substantia nigra. Format: in vivo. Particulars: for TH levels in the striatum / TH levels in the substantia nigra: vs control group (G1); for TH levels in substantia nigra / TH levels in striatum: PO QD Day 1-7, Example 3 2/10/50 mg/kg, Example 2 50 mg/kg, vs MPTP group G2; for TH levels in striatum: Nilotinib 40 mg/kg. On the procedure:
(§1) Mice at 7 weeks of age were divided into 7 groups as shown in Table 9 below to generate an acute MPTP model and proceed with drug administration: control group+vehicle (G1), MPTP+vehicle (G2), MPTP+Nilotinib 40 mg/kg (G3), MPTP+Example 3 2 mg/kg (G4), MPTP+Example 3 10 mg/kg (G5), MPTP+Example 3 50 mg/kg (G6), and MPTP+Example 2 50 mg/kg (G7). The test drug was administered orally (PO) at 10 ml/kg once daily (QD) from Day 1 to Day 7. The acute MPTP model will be performed at 2-hour intervals in all groups except the control group. […] was administered as intraperitoneal (IP) injection for 4 doses. The control group was given the same amount of 0.9% saline. The Pole test was performed on day 4 (after training on day 2 and day 3). On day 7, all mice were euthanized, and their brains were harvested.
Mice were euthanized with Zoletil administration for collection of tissue samples for staining and analysis of histological sections. Blood was collected from the heart of the mouse and then the residual blood was perfused with phosphate-buffered saline (PBS). For half of the mice (n=6/group), the brain was incised into the striatum, substantia nigra, and the rest of the brain, flash-frozen, and stored at −80° C. The remaining mice (n=6/group) had their brains isolated and immobilized in 4% paraformaldehyde for 24 hours at 4° C., followed by 30% sucrose in phosphate-buffered saline (PBS) containing 0.02% sodium azide and stored at 4° C. for 3 days. Immunohistochemical sections were performed on brain samples embedded with optimal cutting temperature (OCT) compounds. Samples were sectioned to a thickness of 20 μm using Leica CM1950 (Leica Microsystems, Germany) and stored at 4° C. in a preservation solution until staining with antibodies.
After staining the striatum and substantia nigra of the brain and mounting them on microscopic slides, the slides were washed with PBS containing 0.3% Triton X-100 and peroxidase block for 15 min at room temperature. The slides were washed three times with PBS containing 0.3% Triton X-100 and then blocked at RT (room temperature) for 1 hour in a solution containing PBS, 5% normal goat serum, and 0.3% Triton X-100. Tyrosine hydroxylase antibody was diluted at 1:1000 and incubated overnight at 4° C. The slides were washed with PBS solution and incubated for 1 h at RT with secondary antibody. The slides were washed with PBS solution and the sections were placed in the solution to proceed with the DAB (diaminobenzidine) reaction.
The DAB response was monitored under a microscope for 2 to 3 minutes, and the slides were washed with PBS to stop the DAB response, dehydrated, and mounted using xylene. An Olympus microscope (Olympus, SZ61, BX51) was used to visualize TH stained images. The optical density (OD) value of positive TH staining was measured in the striatum and substantia nigra and analyzed using Image J software.

The subject of test [3] is MPTP-induced PD mouse model. As to the kind of experiment: MPTP-induced PD mouse model: dopamine by LC-MS/MS. Particulars: vs MPTP alone group. Format: in vivo. The method, then: as §1
The amount of dopamine was measured by LC-MS/MS analysis using Agilent 1290 (LC) and SCIEX QTARP 6500+ (QQQ) for the striatum and substantia nigra of the extracted brain tissue.

pIC50: −log10 of the molar value.

The record followed here is patent US20260138969A1 (Korea Research Institute of Chemical Technology, priority 2023, published 2026).

The term pIC50 denotes the negative decadic logarithm of the IC50, by convention in mol/L. The remaining activity is the signal under treatment as a percentage of the control signal. `Cc1cc(F)c(C(=O)Nc2cccc(-n3nnc4c3CCCC4)n2)cc1-n1cnc(C2CC2)c1` [Example 3, 5-(4-cyclopropyl-1H-imidazole-1-yl)-2-fluoro-4-methyl-N-(6-(4,5,6,7-tetrahydro-1H-benzo[d][1,2,3]triazole-1-yl)pyridine-2-yl)benzamide]: in test [1], the negative logarithm of the IC50 (pIC50) is 7.14 and the remaining activity at 0.5 µM stood at 7%. Also, in test [2] (10 mg/kg PO QD), the “TH levels in the striatum” value is recorded as “significantly higher than in the control group (G1)” and the “TH levels in the substantia nigra” value was “significantly higher than in the control group (G1)”. Besides, in test [2] (50 mg/kg PO QD), the “TH levels in the striatum” value is “significantly higher than in the control group (G1)” and the “TH levels in the substantia nigra” value is listed as “significantly higher than in the control group (G1)”. In test [2], the “TH levels in substantia nigra” value is listed as “significant increase” and the “TH levels in striatum” value is reported as “significant increase”. In test [3] (2 mg/kg PO QD), the “dopamine concentration in the substantia nigra” value is recorded as “significantly increased”. Moreover, in test [3] (10 mg/kg PO QD), the “dopamine concentration in the substantia nigra” value is recorded as “significantly increased”.

As to `Cc1cc(F)c(C(=O)Nc2cccc(-n3nnc4c3CCC4)n2)cc1-n1cnc(C2CC2)c1` [Example 2, 5-(4-cyclopropyl-1H-imidazole-1-yl)-N-(6-(5,6-dihydrocyclopenta[d][1,2,3]triazole-1 (4H)-yl)pyridine-2-yl)-2-fluoro-4-methylbenzamide], in test [1], the negative logarithm of the IC50 (pIC50) was 7.43 and the remaining activity at 0.5 µM was 2%. The “TH levels in the substantia nigra” value in test [2] (50 mg/kg PO QD) was “significantly higher than in the control group (G1)”. Besides, in test [2], the “TH levels in substantia nigra” value is “significant increase” and the “TH levels in striatum” value is given as “significant increase”. In test [3] (50 mg/kg PO QD), the “dopamine concentration in the striatum” value is on record as “significantly increased” and the “dopamine concentration in the substantia nigra” value was “significantly increased”.
